The values that follow come from US20240344032A1, “ORGANOID PRODUCTION METHOD, CULTURE MEDIUM FOR ORGANOID PRODUCTION, ORGANOID, AND TEST SUBSTANCE EVALUATION METHOD” (JSR CORPORATION, priority 2021, published 2024).

Where no end group is shown, it is not given here. [ ]: non-standard residue; d: D form. The star is where a group is joined. X1 = 4‑(carboxymethyl)piperazine‑1‑carbonyl, O=C(O)CN1CCN(C(=O)*)CC1; 1Nal = N[C@@H](Cc1cccc2ccccc12)C(=O)O; Gly(NCH2CH2Ph) = O=C(O)CNCCc1ccccc1; 4Pal = N[C@@H](Cc1ccncc1)C(=O)O

Assay [1] deals with primary human hepatocytes. Description: Culturing of human hepatocytes (proliferation of cells). It is filed as cell-based. On the procedure: Cryopreserved primary human hepatocytes in suspension (HEP187-S, manufactured by Biopredic International) were thawed in a water bath at 37° C., suspended in a 50 mL tube to which a serum-free culture medium (a culture medium obtained by adding HEPES, GLUTAMAX, and PENICILIN/STEREPTOMYCIN to Advanced DMEM/F12) had been added, and centrifuged. After the centrifugation, the supernatant was removed, and then the resultant product was suspended in a serum-free culture medium to prepare a human hepatocyte suspension. 20,000 human hepatocytes were collected from the suspension, mixed with 50 μL of Matrigel (registered trademark, manufactured by BD Biosciences), seeded in a 24-well tissue culture plate, and incubated at 37° C. for 10 minutes until Matrigel (registered trademark) was completely polymerized. After the polymerization, a culture medium (500 μL/well) prepared by adding each component to a basal medium to have the concentration shown in Table 4 below was overlaid, and culturing was carried out at 37° C. in the presence of 5% by volume of CO2. Advanced DMEM/F12 was used as a basal medium. The culture medium was exchanged every two or three days.
FIG. 2 is a graph showing a result of measuring the proliferation of cells.
FIG. 3 is a graph showing a result of measuring proliferation of cells in a case where the concentration of the #7401 peptide was set to be low.

Assay [2] has as its system ALK5, VEGFR, RIPK2, MINK1, p38a MAPK, PKD1, and FGF-R1. The conditions noted are these: known from the literature; cited from earlier work.
In assay [3] the test system is Human small intestinal epithelial cells (including human small intestinal stem cells). The assay is described as follows: Examination of EGFR signal and p38 MAPK signal: culture of small intestinal epithelial cells, bright field observation and Lgr5-tdTomato reporter assay. Type of assay: cell-based. Here is the method: Upregulation of EGFR signal is known to induce cell proliferation. Therefore, the cell proliferative properties in a state where there was no EGFR signal were examined. […] Therefore, culturing was examined in the presence or absence of the p38 MAPK signal.
To the basal medium (Advanced DMEM/F12), each component was added to the concentration shown in Table 5 below to prepare a culture medium. Human small intestinal epithelial cells (including human small intestinal stem cells) were dispersed in Matrigel (registered trademark, manufactured by BD Biosciences). Subsequently, the dispersion product was seeded into each well of a 48-well tissue culture plate and incubated at 37° C. for 10 minutes to polymerize Matrigel (registered trademark).
Subsequently, 300 μL/well of a culture medium was overlaid, and culturing was carried out at 37° C. for 10 days in the presence of 5% by volume of CO2. The culture medium was exchanged every two or three days. Cells were cultured for 10 days in a culture medium containing EGF and cultured for 14 days in a culture medium containing no EGF. Thereafter, bright field observation with an optical microscope in the well and Lgr5-tdTomato reporter assay were carried out.
In general terms: Reporter assays use an easily measured gene product as a stand-in for the process of interest.

The subject of assay [4] is p38 MAPK signaling pathway. The conditions noted are these: reported in Vogt J., et al., Cell Signal., 2011; cited from earlier work.
The test system of assay [5] is Human colon epithelial cells (including human colon stem cells). Description: Culturing of human colon epithelial cells (organoid formation). Particulars: 0.5 nM, 5 nM, or 50 nM in culture medium, 7 days, optical microscope, FIG. 1. Type of assay: cell-based. Here is the method:
To a basal medium, each component was added to have the concentration shown in Table 3 below to prepare a culture medium. In Table 3, “CM” means conditioned medium. Advanced DMEM/F12 was used as a basal medium. As the peptide, peptide names #7401 and #2392 were used (hereinafter, each may be referred to as “#7401 peptide” and “#2392 peptide”). Regarding the #7401 peptide, a chemical formula is shown in Formula (2-1), and an amino acid sequence (SEQ ID NO: 3) is shown in Formula (2-2). In addition, regarding the #2392 peptide, a chemical formula is shown in Formula (3-1), and an amino acid sequence (SEQ ID NO: 4) is shown in Formula (3-2).
Human colon epithelial cells (including human colon stem cells) were dispersed in Matrigel (registered trademark, manufactured by BD Biosciences). Subsequently, the dispersion product was seeded into each well of a 48-well tissue culture plate and incubated at 37° C. for 10 minutes to polymerize Matrigel (registered trademark).
Subsequently, the culture medium (300 μL/well) prepared in Experimental Example 1 was overlaid on each well, and culturing was carried out at 37° C. for 7 days in the presence of 5% by volume of CO2. The culture medium was exchanged every two or three days.

As to `Cc1cccc(-c2nn(C(=S)Nc3ccccc3)cc2-c2ccnc3ccccc23)n1` [Peptide A83-01], in assay [1] (5 μM added to the culture medium, FIG. 2), the proliferation of cells entry is recorded as “proliferation of cells is not observed after 35 days”. For the same molecule, in assay [2], the “action on ALK5 and off-target kinases/receptors” value is “strongly act”. In addition, the “cell proliferative properties and colony forming properties” value in assay [3] (medium containing EGF (50 ng/mL), no SB202190, 500 nM and 5000 nM, 10 days, FIG. 5) is “the cell proliferative properties and the colony forming properties were concentration-dependently inhibited”. For the same molecule, the “stem cell properties (Lgr5-tdTomato reporter) versus 50 nM or 500 nM #7401 peptide” value in assay [3] (medium containing no EGF, no SB202190, 500 nM and 5000 nM, 14 days, FIG. 6) is “higher stem cell properties”. For the same molecule, in assay [3] (medium containing no EGF, no SB202190, 14 days, FIG. 6), the “stem cell properties (Lgr5-tdTomato reporter), 5000 nM versus 500 nM” value is “higher stem cell properties”. For the same molecule, the “inhibition of p38 MAPK signaling pathway” value in assay [4] is recorded as “inhibits p38 MAPK signaling pathway”.

Take “#2392 peptide: cyclic peptide, chemical formula in Formula (3-1), amino acid sequence (SEQ ID NO: 4) in Formula (3-2) (F[1Nal]VVNVTDD[Gly(NCH2CH2Ph)]V[1Nal]THVCG; bridge (positions not given here); not fully specified (bridges))”: the “organoid formation efficiency compared with A83-01” value in assay [5] is “organoids can be formed with an efficiency equal to or higher than that in a case where A83-01 was added”.

On to “#7401 peptide: cyclic peptide, chemical formula in Formula (2-1), amino acid sequence (SEQ ID NO: 3) in Formula (2-2) (F[1Nal]VVNV[4Pal]DD[Gly(NCH2CH2Ph)]V[1Nal]THK(X1)CG; bridge (positions not given here); not fully specified (bridges))”, for which the proliferation of cells result in assay [1] (50 nM in the culture medium, FIG. 3) was “cells can sufficiently proliferate”. In assay [5], the “organoid formation efficiency compared with A83-01” value is recorded as “organoids can be formed with an efficiency equal to or higher than that in a case where A83-01 was added”.
